Assay results as given in patent US20220409535A1, “BIOLOGICAL AGENT-EXOSOME COMPOSITIONS AND USES THEREOF” (The University of North Carolina at Chapel Hill, priority 2016, published 2022).

Tests used:
hCMEC/D3 cells = experiment: Flow cytometry of cell uptake of Mϕ exosomes and endocytosis markers; type: cell-based, human; settings: for effect on uptake of Mϕ exosomes: CM-DiI labeled exosomes, 4 h; for effect on uptake of respective endocytosis marker: sucrose of transferrin, nystatin of CTB, EIPA of dextran (70 kDa)
Procedure: Flow Cytometry of Cell Uptake. hCMEC/D3 cells were grown in 24-well plates at […] for 4-5 days to reach confluence. Exosomes were labeled by adding CM-DiI dyes (2 μg/ml, Life Technologies) to the medium before the first […] pelleting step. In the uptake mechanism studies, the cells were pretreated with endocytosis inhibitors, carbohydrates or EGTA for 0.5 h, and then co-treated with CM-DiI labeled exosomes (0.6×10^10 exosomes/ml) for 4 h. The inhibition of endocytosis markers uptake was studied similarly. The endocytosis markers used were Alexa Fluor 488-Transferrin (10 μg/ml, Life technologies) for clathrin mediated endocytosis, Alexa Fluor 488-CTB (5 μg/ml, Life technologies) for caveolae mediated endocytosis, and FITC-Dextran (70 kDa, Sigma) (10 mg/ml) for macropinocytosis. The antibody block assays were done by co-incubating exosomes with antibodies or isotope controls at 100 μg/ml for 4 h. The cells were washed trice by PBS, detached by 0.25% trypsin/EDTA, collected by centrifugation at 100 g for 10 min, fixed with 4% paraformaldehyde for 10 min, and then resuspended in 0.35 ml PBS. Viable singlets were gated based on forward scatter and side scatter. 5,000-10,000 viable singlets were recorded for each sample on Becton Dickinson LSRII (BD Biosciences) using 488 nm and 532 nm lasers. Unless otherwise noted in figure legend, data are not normalized and reported as mean fluorescence±SD of 3 replicate wells.

[1] = Shinoda et al.; cited from earlier work
[2] = PK and distribution in healthy CD-1 mice; type: in vivo, mouse; settings: jugular vein
Procedure: Iodine Labeling. Exosomes and proteins were labeled with iodine by chloramine-T method (Yi et al., J. Controlled Release 191:34 (2014)). Briefly, exosomes or proteins were mixed with 1 mCi of Na^125I or Na^131I (Perkin Elmer) and 10 μg of chloramine-T in phosphate buffer (0.25 M, pH 7.5) for 60 s. Labeled exosomes and proteins were purified by Illustra Nap-5 columns (Life technologies) and collected in tubes pretreated with 1% BSA in PBS to prevent nonspecific adsorption. The iodine association (iodine in labeled sample/total iodine) was determined by trichloroacetic acid precipitation method (Yi et al., J. Controlled Release 191:34 (2014)). Briefly, 1 μl of purified samples was mixed with 0.5 ml of 1% BSA in PBS and 0.5 ml of 30% TCA, and then centrifuged at 5400 g for 10 min. The resulting pellet and supernatant were counted on r-counter (PerkinElmer). The iodine association was calculated as the percentage of pellet radioactivity to total radioactivity.
Animal Procedure. Mice were anesthetized with 40% urethane (4 g/kg) by intraperitoneal injection. Iodine labeled substances (4×10^5 cpm) were injected to the right jugular vein. At each time point, blood was collected from the left carotid artery, allowed to clot and then centrifuged at 5400 g for 10 min to collect serum. The whole brain and peripheral organs were removed and weighed immediately after blood sampling. The radioactivity of serum and tissues were counted and normalized to injected dose (ID) by volume (ml) or weight (g) (% ID/ml or % ID/g). An injection check representing ID was also counted (n=3).
PK data analysis. The noncompartmental PK parameters Vss (ml), Cl (ml/min), MRTlast and MRTinf (h) were estimated using Phoenix® WinNonlin® 6.3 (Pharsight). The Ki (slope) and Vi (y-intercept) were calculated from the linear portion of multiple-time regression analysis (Price et al., J. Pharmacol. Exper. Ther. 333:253 (2010); Patlak et al., J. Cerebral Blood Flow Metab. 3:1 (1983); Patlak et al., J. Cerebral Blood Flow Metab. 5:584 (1985)). Brain/serum ratio (Am/Cpt, ml/g) of co-injected BSA was used to correct for the vascular space or leakage (Banks et al, Brain Behav. Immun. 2010, 24:102 (2010)), and subtracted from that of tested substance to get the delta brain/serum ratio. The delta brain/serum ratio was plotted against exposure time following equation

Row | Compound | effect on uptake of Mϕ exosomes (hCMEC/D3 cells) | effect on uptake of respective endocytosis marker (hCMEC/D3 cells) | also measured
1 | O=C(O)CN(CCOCCOCCN(CC(=O)O)CC(=O)O)CC(=O)O [EGTA, ethylene glycol-bis(2-aminoethylether)-N, N, N′, N′-tetraacetic acid] | decreased | – | –
2 | CCN(c1nc(N)c(C(=O)N=C(N)N)nc1Cl)C(C)C [EIPA, 5-(N-Ethyl-N-isopropyl) amiloride] | significantly decreased the uptake of Mϕ exosomes | diminished uptake of a respective endocytosis marker | –
3 | C[C@@H]1[C@H](O)[C@@H](C)/C=C/C=C/CC/C=C/C=C/C=C/C=C/C(O[C@H]2O[C@H](C)[C@@H](O)[C@H](N)[C@@H]2O)CC2O[C@](O)(CC(O)C(O)CCC(O)CC(O)CC(O)CC(=O)O[C@H]1C)CC(O)C2C(=O)O (stereo partly shown) [nystatin] | significantly decreased the uptake of Mϕ exosomes | diminished uptake of a respective endocytosis marker | –
4 | OC[C@H]1O[C@@](CO)(O[C@H]2O[C@H](CO)[C@@H](O)[C@H](O)[C@H]2O)[C@@H](O)[C@@H]1O [sucrose] | significantly decreased the uptake of Mϕ exosomes | diminished uptake of a respective endocytosis marker | –
5 | ^131I-BSA: 131I-labeled bovine serum albumin, co-injected vascular marker | – | – | Cl, previously published data [1]: 0.0035 mL/min; Vss, previously published data [1]: 1.5 mL; Cl [2]: 0.0039 mL/min; MRTinf [2]: 6.10 h; MRTlast [2]: 0.94 h; Vss [2]: 1.44 mL
